Laboratory results reported in patent publication US20210212984A1, “FORMULATION FOR PAIN MANAGEMENT” (Zyus Life Sciences Inc., priority 2019, published 2021).
Values joined by “and” are separate entries in the source; they are usually repeats but may differ in a detail not shown here. Identical values can stand only once. Like-named read-outs stand apart in the source and are kept apart here.

Tests used:
human TRPA1 channel = target: T1, human TRPA1 channel (Homo sapiens, UniProt O75762); experiment: ScreenPatch assay (IonWorks Barracuda), agonist mode, TRPA1 expressed in CHO cells; type: cell-based; details: for EC50: read-out: EC50, CBC CRC
T1 construct: expressed in transfected cells; host or cells: CHO cells
T1 sequence (O75762 whole entry): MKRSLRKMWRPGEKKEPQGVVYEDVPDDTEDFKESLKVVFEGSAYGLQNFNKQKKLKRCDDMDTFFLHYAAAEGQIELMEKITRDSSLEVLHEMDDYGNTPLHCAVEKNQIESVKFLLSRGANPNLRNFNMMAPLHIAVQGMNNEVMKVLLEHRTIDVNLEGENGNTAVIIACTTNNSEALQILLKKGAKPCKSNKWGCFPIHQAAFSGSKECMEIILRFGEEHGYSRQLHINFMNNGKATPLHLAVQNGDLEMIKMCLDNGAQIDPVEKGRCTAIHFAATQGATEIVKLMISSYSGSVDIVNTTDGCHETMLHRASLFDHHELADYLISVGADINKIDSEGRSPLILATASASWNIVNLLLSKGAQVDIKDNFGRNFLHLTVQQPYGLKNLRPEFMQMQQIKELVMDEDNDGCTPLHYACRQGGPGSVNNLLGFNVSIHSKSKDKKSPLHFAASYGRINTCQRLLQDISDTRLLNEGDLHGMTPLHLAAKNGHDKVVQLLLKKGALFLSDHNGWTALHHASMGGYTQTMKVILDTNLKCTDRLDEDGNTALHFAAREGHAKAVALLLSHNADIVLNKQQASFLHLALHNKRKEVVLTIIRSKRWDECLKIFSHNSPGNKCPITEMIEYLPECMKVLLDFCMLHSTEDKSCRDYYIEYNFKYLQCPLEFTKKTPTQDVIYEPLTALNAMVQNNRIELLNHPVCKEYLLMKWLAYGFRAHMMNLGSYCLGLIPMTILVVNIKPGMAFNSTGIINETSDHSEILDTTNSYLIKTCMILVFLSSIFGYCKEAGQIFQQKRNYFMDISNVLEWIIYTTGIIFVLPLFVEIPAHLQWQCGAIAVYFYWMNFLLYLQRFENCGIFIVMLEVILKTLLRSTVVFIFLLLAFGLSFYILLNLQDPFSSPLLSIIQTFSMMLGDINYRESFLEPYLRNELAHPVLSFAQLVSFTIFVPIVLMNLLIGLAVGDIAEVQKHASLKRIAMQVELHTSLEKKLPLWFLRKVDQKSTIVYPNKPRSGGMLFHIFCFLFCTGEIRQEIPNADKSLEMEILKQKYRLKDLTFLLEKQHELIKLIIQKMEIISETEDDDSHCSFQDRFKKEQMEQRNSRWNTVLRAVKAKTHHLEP
Procedure: Formulations for pain management were tested for effects on the human TRPA1 channel, expressed in mammalian cells using the ScreenPatch® assay (IonWorks™ Barracuda Based Assay): agonist mode. The data presented confirming a synergistic effect of cannabinoids (CBD:THC:CBC) at the ion channel level.
Test Articles. The test articles, also referenced herein as test formulations, were evaluated in an 8-point concentration-response format (4 replicate wells/concentration, Table 4A & Table 4B). The test articles were dissolved and initially serially diluted in dimethyl sulfoxide (DMSO). The final dilution was made in extracellular solution. The final DMSO concentration was 0.6% (v/v).
Positive Control Treatment Groups. Stock solutions of positive control articles were prepared in batches, aliquoted for individual use. The positive control test solutions were prepared fresh on the day of experiment. The final DMSO concentration was 0.6% (v/v). […] Reference antagonist, ruthenium red (0-10 μM), was used for both TRPA1.
Test System: TRPA1 ionotropic receptors expressed in CHO cells.
Test Platform: Ionworks Barracuda™
Electrophysiological Procedures. Intracellular solution (mM): 50 mM CsCl, 90 mM CsF, 2 mM MgCl2, 5 mM EGTA, 10 mM HEPES. Adjusted to pH 7.2 with CsOH. This solution was prepared in batches and stored at room temperature. In preparation for a recording session, the intracellular solution was loaded into the intracellular compartment of the PPC planar electrode.
Extracellular solution, HB-PS (composition in mM): NaCl, 137; KCl, 1.0; MgCl2, 2; CaCl2, 2; HEPES, 10; Glucose, 10; pH adjusted to 7.4 with NaOH (refrigerated until use). Holding potential: −70 mV, potential during agonist/antagonist application: −70 mV.
Recording procedure. Extracellular buffer was loaded into the PPC plate wells (11 μL per well). Cell suspension was pipetted into the wells (9 μL per well) of the PPC planar electrode.
Whole-cell recording configuration was established via patch perforation with membrane currents recorded by on-board patch clamp amplifiers.
Single application (scan) protocol was used.
Test Article Administration. The application consisted of the addition of 20 μL of 2× concentrated test article solution at 10 μL/s (2 second total application time).
TRPA1 Positive Control—Agonist.
Positive Control—Antagonist. 0-10 μM Ruthenium Red (8 concentrations, 4 replicates, half log scale).

CB2 receptors = CB2 receptors (Homo sapiens, UniProt P34972); details: Shinjyo N 2013; cited from earlier work
CB2 receptors, sequence (P34972 whole entry): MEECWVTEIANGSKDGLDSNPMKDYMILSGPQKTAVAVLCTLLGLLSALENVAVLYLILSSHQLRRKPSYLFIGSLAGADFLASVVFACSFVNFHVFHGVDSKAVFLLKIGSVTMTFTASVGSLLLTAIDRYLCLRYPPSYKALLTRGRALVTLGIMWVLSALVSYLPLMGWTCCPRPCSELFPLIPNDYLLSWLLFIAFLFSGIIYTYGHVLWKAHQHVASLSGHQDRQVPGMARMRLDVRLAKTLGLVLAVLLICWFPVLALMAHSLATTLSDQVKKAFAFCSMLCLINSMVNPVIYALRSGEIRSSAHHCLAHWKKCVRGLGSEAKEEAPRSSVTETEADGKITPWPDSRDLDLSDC

CB1 receptors = CB1 receptors (Homo sapiens, UniProt P21554); details: Shinjyo N 2013; cited from earlier work
CB1 receptors, sequence (P21554 whole entry): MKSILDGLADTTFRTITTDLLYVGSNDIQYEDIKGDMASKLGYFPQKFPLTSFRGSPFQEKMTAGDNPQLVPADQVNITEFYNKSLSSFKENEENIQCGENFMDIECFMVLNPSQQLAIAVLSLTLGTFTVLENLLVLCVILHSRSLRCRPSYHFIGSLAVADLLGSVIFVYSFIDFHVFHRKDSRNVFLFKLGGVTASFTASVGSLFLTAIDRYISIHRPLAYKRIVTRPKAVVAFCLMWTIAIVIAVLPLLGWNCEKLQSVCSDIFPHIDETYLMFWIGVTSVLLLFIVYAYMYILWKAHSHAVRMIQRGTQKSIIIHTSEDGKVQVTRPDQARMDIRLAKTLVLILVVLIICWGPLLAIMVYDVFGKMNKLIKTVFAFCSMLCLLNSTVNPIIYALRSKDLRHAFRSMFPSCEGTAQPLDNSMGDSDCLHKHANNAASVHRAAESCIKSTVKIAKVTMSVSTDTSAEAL

[1] = CHO, CRC of the article alone, % of 3000 μM Mustard Oil, read-out: EMAX
[2] = CRC of the article alone, % of 3000 μM Mustard Oil
[3] = in presence of 0.1 μM CBD + THC
[4] = in presence of 0.3 μM CBD + THC

## CO [Methanol]
Human TRPA1 channel; [1]
  Emax: 3.97%
Human TRPA1 channel; [2]
  EMIN: 0.95%

## N.N.N.N.N.N.N.N.N.N.N.N.N.N.[Cl-].[Cl-].[Cl-].[Cl-].[Cl-].[Cl-].[O-2].[O-2].[Ru+3].[Ru+3].[Ru+4] [Ruthenium Red, reference compound]
Human TRPA1 channel; CRC of the article alone
  Hill Slope: 0.85
Human TRPA1 channel; [2]
  EMIN: 0.00%
  Emax: 47.50%
Human TRPA1 channel; inhibition of TRPA1 receptors, CRC 0-10 μM (footnote: IC50 is shown)
  IC50: 1.79 µM

## C=CCN=C=S [Mustard Oil, Allyl isothiocyanate, reference compound]
Human TRPA1 channel; CHO, CRC of the article alone, % of 3000 μM Mustard Oil
  Emax at 3000 µM: 100%
Human TRPA1 channel; CRC of the article alone
  Hill Slope: −1.91
Human TRPA1 channel; [2]
  EMIN: 1.01%

## CCCCCc1cc(O)c2c(c1)OC(C)(CCC=C(C)C)C=C2 (stereo not shown) [CBC, cannabichromene]
CB2 receptors
  Ki: ~0.1 µM
CB1 receptors
  concentrations at which it binds to CB1 receptors: higher than 1 micromolar
Human TRPA1 channel
  Agonist activity at TRPA1 receptors (in words): weak partial agonist activity
Human TRPA1 channel; [1]
  Emax: ~10%
Human TRPA1 channel; CHO, at near threshold activation by CBD+THC mixture (1 μM each), n=4, read-out: Efficacy (EMAX) of CBC
  Emax: 16.2 ± 1.3%
Human TRPA1 channel; CHO, in presence of 0.1 μM CBD + THC, % of 3000 μM Mustard Oil, read-out: EMAX, CBC CRC
  Emax: 10.1%
Human TRPA1 channel; CHO, in presence of 0.3 μM CBD + THC, % of 3000 μM Mustard Oil, read-out: EMAX, CBC CRC
  Emax: 13.1%
Human TRPA1 channel; CHO, in presence of 1 μM CBD + THC, % of 3000 μM Mustard Oil, read-out: EMAX, CBC CRC
  Emax: 17.1%
Human TRPA1 channel; CHO, in presence of 3 μM CBD + THC, % of 3000 μM Mustard Oil, read-out: EMAX, CBC CRC
  Emax: 30.7%
Human TRPA1 channel; CHO, in presence of 10 μM CBD + THC, % of 3000 μM Mustard Oil, read-out: EMAX, CBC CRC
  Emax: 53.2%
Human TRPA1 channel; CHO, in presence of 30 μM CBD + THC, % of 3000 μM Mustard Oil, read-out: EMAX, CBC CRC
  Emax: 60.8%
Human TRPA1 channel; CHO, in presence of 100 μM CBD + THC, % of 3000 μM Mustard Oil, read-out: EMAX, CBC CRC
  Emax: 58.5%
Human TRPA1 channel; CHO, in presence of 300 μM CBD + THC, % of 3000 μM Mustard Oil, read-out: EMAX, CBC CRC
  Emax: 37.2%
Human TRPA1 channel; CRC of the article alone
  Hill Slope: −0.96
Human TRPA1 channel; [2]
  EMIN: 0.86%
  Emax: 10.3±1.9% and 10.31%
Human TRPA1 channel; at near threshold activation by CBD+THC mixture (1 μM each), n=4
  Efficacy (EMAX) of CBC: 16±1%
Human TRPA1 channel; [3]
  Hill Slope, CBC CRC: −3.56
  EC50: 54.5 µM
Human TRPA1 channel; in presence of 0.1 μM CBD + THC, % of 3000 μM Mustard Oil
  EMIN, CBC CRC: 0.92%
Human TRPA1 channel; [4]
  Hill Slope, CBC CRC: −1.00
  EC50: 64.1 µM
Human TRPA1 channel; in presence of 0.3 μM CBD + THC, % of 3000 μM Mustard Oil
  EMIN, CBC CRC: 1.42%
Human TRPA1 channel; in presence of 1 μM CBD + THC
  Hill Slope, CBC CRC: −1.00
  EC50: 26 µM
Human TRPA1 channel; in presence of 1 μM CBD + THC, % of 3000 μM Mustard Oil
  EMIN, CBC CRC: 2.40%
Human TRPA1 channel; in presence of 3 μM CBD + THC, % of 3000 μM Mustard Oil
  EMIN, CBC CRC: 15.03%
Human TRPA1 channel; in presence of 10 μM CBD + THC, % of 3000 μM Mustard Oil
  EMIN, CBC CRC: 42.93%
Human TRPA1 channel; in presence of 30 μM CBD + THC, % of 3000 μM Mustard Oil
  EMIN, CBC CRC: 47.70%
Human TRPA1 channel; in presence of 100 μM CBD + THC, % of 3000 μM Mustard Oil
  EMIN, CBC CRC: 37.89%
Human TRPA1 channel; in presence of 300 μM CBD + THC, % of 3000 μM Mustard Oil
  EMIN, CBC CRC: 29.27%
